Data from PMC3655044, “Construction of a chimeric thermoacidophilic beta-endoglucanase” (BMC Biochemistry, 2013).

Tested on: T1, CelA-SSO1949-CelA
T1 construct: 70 aa CelA + 163 aa SSO1949 + 29 aa CelA, 262 aa, ~29 kDa, no purification tag
Test: FRET fluorescence assay, initial rates
Type: biochemical, Thermotoga maritima; Saccharolobus solfataricus
Conditions: 80°C; pH 3; 0.1 M sodium phosphate
Source text: FRET fluorescence assay, initial rates on CelA-SSO1949-CelA

How did the Km turn out when `CN(C)c1ccc(/N=N/c2ccc(NC(=S)N[C@H]3[C@H](O)[C@@H](O)[C@H](O[C@H]4[C@H](O)[C@@H](O)[C@H](O[C@H]5[C@H](O)[C@@H](O)[C@H](O[C@H]6[C@H](O)[C@@H](O)[C@H](O[C@H]7[C@H](O)[C@@H](O)[C@H](O[C@H]8[C@H](O)[C@@H](O)[C@H](SCC(=O)NCCNc9cccc%10c(S(=O)(=O)O)cccc9%10)O[C@@H]8CO)O[C@@H]7CO)O[C@@H]6CO)O[C@@H]5CO)O[C@@H]4CO)O[C@@H]3CO)cc2)cc1` [fluorescent cellohexaoside, sodium N-{2-N-[(S-(4-deoxy-4-dimethylamino-phenylazophenylthioureido-β-D-glucopyranosyl)-(1→4)-β-D-glucopyranosyl-(1→4)-β-D-glucopyranosyl-(1→4)-β-D-glucopyranosyl-(1→4)-β-D-glucopyranosyl-(1→4)-β-D-glucopyranosyl)-2-thioacetyl]aminoethyl}-1-naphthylamine-5-sulphonate] was run?
Its Km is 1.74 ± 0.15 µM.
